Laboratory results as given in patent US20210322582A1, “RADIOACTIVE IMIDAZOTHIADIAZOLE DERIVATIVE COMPOUND” (Nihon Medi-Physics Co., Ltd., priority 2018, published 2021).

How the values were obtained:
HT-29 tumor = test: Biodistribution of [^111In]ITDA2 in HT-29 tumor cancer-bearing mouse; type: in vivo; conditions: from Tables 8 and 9
Experimental: HT-29 cells (5×10^6 cells/mouse) and MDA-MB-231 cells (1×10^7 cells/mouse) were subcutaneously inoculated into the left shoulders of 5-week old male BALB/c nude mice, respectively, and the mice were used when the tumor diameter reached 6 to 10 mm. A saline solution (100 μL) in which [^111In]ITDA2 (40 kBq) had been dissolved was administered to each of the HT-29 tumor or MDA-MB-231 tumor cancer-bearing mice (n=5) via the tail vein. The HT-29 tumor cancer-bearing mice were slaughtered after the lapse of 1, 4, 8, and 24 hours from the administration, the MDA-MB-231 tumor cancer-bearing mouse was slaughtered after the lapse of 24 hours from the administration, and the blood, spleen, pancreas, stomach, intestines, kidney, liver, heart, lungs, brain, tumor, and muscle were recovered from each of the mice. The weight of each organ was measured, and the amount of radioactivity in each organ was measured by using a gamma counter. The accumulation of radioactivity in each organ except for stomach was expressed by % injected dose/g organ obtained by dividing the ratio of the amount of radioactivity of each organ to the administered amount of radioactivity by the organ weight. The stomach was expressed by % injected dose.

CA-IX [1] = target: T1, CA-IX (Homo sapiens, UniProt Q16790); test: In vitro autoradiography of tumor sections using [^123I]HIC205; type: binding; parameters: Fresh-frozen sections (each 14 μm) were prepared from a tumor having a tumor volume of around 200 mm^3; from tissue
Experimental: Fresh-frozen sections (each 14 μm) were prepared from a tumor having a tumor volume of around 200 mm^3, and then the prepared fresh-frozen sections were sufficiently air dried. The dried fresh-frozen sections were immersed in Tris-buffered saline (TBS), and then immersed in a TBS adjusted so as to have 5 kBq/ml of [^123I]HIC205 and a solution containing 400 μM acetazolamide in the TBS (both contained 0.1% dimethyl sulfoxide (DMSO)), and both the sections were incubated at the same time (at 37° C. for 30 minutes). After that, the resultant sections were washed with TBS and 40% ethanol (EtOH)-containing TBS, respectively, and then air dried. The air-dried sections were each brought into contact with an imaging plate (IP), and were read out by a bioimaging analyzer BAS2000 (manufactured by FUJIFILM Corporation). The section used for autoradiography (ARG) was directly subjected to immunohistochemistry that was performed by using a goat-derived anti-CA-IX antibody.
The localization of the radioactivity of [^123I]HIC205 and the difference in the binding of [^123I]HIC205 between the individual treatments are shown FIG. 1.
The results of the comparison of the localization of the radioactivity of [^123I]HIC205 with the expression of CA-IX are shown in FIGS. 2A and 2B. […] The region between two arrows indicates the part where the binding of [^123I]HIC205 and the expression of CA-IX are not consistent. Further, FIG. 2B is an enlarged view showing the region between the two arrows of the result of immunohistochemical staining of animal B shown in the lower left of FIG. 2A, in which the result of immunohistochemical staining of FIG. 2A was shown on the left side, and an enlarged view of the region between the two arrows was shown on the right side. The parts indicated by the arrows indicate the overlap of the section.

CA-IX [2] = target: T1, CA-IX; test: Affinity of non-radioactive HIC205 for CA-IX measured by Biacore; type: binding; parameters: purchased R&D Systems Inc
Experimental: The affinity was measured by using Biacore (manufactured by GE Healthcare). Human CA-IX (manufactured by R&D Systems Inc.) was immobilized on a sensor chip (CM7) by an amino coupling method. After non-radioactive HIC205 was dissolved in 100% dimethyl sulfoxide (DMSO), the obtained solution was diluted with a running buffer in a stepwise manner by 10 times, and a non-radioactive HIC205 solution containing 0.1% DMSO was finally prepared. Based on this, a 2-fold dilution series was prepared with the running buffer containing 0.1% DMSO, and the measurement was performed. In this regard, the composition of the running buffer was 0.01 M HEPES (pH 7.4), 0.15M sodium chloride, and 0.005% v/v Surfactant P20. The sensorgram obtained from each concentration was directly curve fitted by a non-linear least-squares method, and the affinity was calculated.

SMILES: NS(=O)(=O)c1nn2cc(-c3ccc(NC(=O)CN4CCN(CC(=O)O)CCN(CC(=O)Nc5ccc(-c6cn7nc(S(N)(=O)=O)sc7n6)cc5)CCN(CC(=O)O)CC4)cc3)nc2s1 [ITDA2, 2,2′-(4,10-bis(2-oxo-2-((4-(2-sulfamoylimidazo[2,1-b][1,3,4]thiadiazol-6-yl)phenyl)amino)ethyl)-1,4,7,10-tetraazacyclododecan-1,7-diyl) diacetic acid]
- Tumor accumulation compared with ITDA1 (HT-29 tumor): lower values as compared with those of ITDA1
- Tumor/blood ratio compared with ITDA1 (HT-29 tumor): lower values as compared with those of ITDA1
- Tumor/muscle ratio compared with ITDA1 (HT-29 tumor): almost the same value as that of ITDA1

SMILES: NS(=O)(=O)c1nn2cc(-c3ccc([123I])cc3)nc2s1 [[^123I]HIC205]
- Binding on the tumor section with simultaneous incubation with acetazolamide (CA-IX [1]; 400 μM acetazolamide): decreased
- Binding on the tumor section (autoradiogram) (CA-IX [1]; 5 kBq/ml, 37° C. for 30 minutes, washed with TBS): confirmed with contrast on the tumor section
- Localization of the radioactivity after washing the section with 40% ethanol (CA-IX [1]; 40% ethanol-containing TBS wash): significantly reduced
- Binding ability to CA-IX (CA-IX [1]; conclusion of autoradiography): has binding ability to CA-IX
- Localization of radioactivity compared with expression site of CA-IX (immunohistochemical staining) (CA-IX [1]; two animals): mostly consistent

SMILES: NS(=O)(=O)c1nn2cc(-c3ccc(I)cc3)nc2s1 [non-radioactive HIC205, 6-(4-iodophenyl)imidazo[2,1-b][1,3,4]thiadiazole-2-sulfonamide]
- Kd (CA-IX [2]; immobilized human CA-IX, n = 1): 0.109 nM
- Dissociation constant (×10^−3) (CA-IX [2]; n = 1): 0.903 ×10^−3 [1/s]
- kon (CA-IX [2]; n = 1, read-out: Binding constant (×10^5)): 8.31e+06 M⁻¹ s⁻¹
